Reference: ChEMBL document CHEMBL1201862, “PubChem BioAssay data set” (2004)
Calls of active or inactive are those of the source. For most assays here, no stated cut-off is given here; in the data, actives have a measured IC50 and inactives only a lower limit.

Experiments:
Type in all cases: functional
Protein RecA = target: T1, Protein RecA (Mycobacterium tuberculosis, UniProt P9WHJ3); assay: Fluorescence Cell-Free Homogeneous Dose Retest to Identify Inhibitors of RecA-Intein Splicing Activity. [Related pubchem assays (depositor defined):AID2097, AID2223, AID489010, AID492950]
T1 sequence (P9WHJ3 whole entry): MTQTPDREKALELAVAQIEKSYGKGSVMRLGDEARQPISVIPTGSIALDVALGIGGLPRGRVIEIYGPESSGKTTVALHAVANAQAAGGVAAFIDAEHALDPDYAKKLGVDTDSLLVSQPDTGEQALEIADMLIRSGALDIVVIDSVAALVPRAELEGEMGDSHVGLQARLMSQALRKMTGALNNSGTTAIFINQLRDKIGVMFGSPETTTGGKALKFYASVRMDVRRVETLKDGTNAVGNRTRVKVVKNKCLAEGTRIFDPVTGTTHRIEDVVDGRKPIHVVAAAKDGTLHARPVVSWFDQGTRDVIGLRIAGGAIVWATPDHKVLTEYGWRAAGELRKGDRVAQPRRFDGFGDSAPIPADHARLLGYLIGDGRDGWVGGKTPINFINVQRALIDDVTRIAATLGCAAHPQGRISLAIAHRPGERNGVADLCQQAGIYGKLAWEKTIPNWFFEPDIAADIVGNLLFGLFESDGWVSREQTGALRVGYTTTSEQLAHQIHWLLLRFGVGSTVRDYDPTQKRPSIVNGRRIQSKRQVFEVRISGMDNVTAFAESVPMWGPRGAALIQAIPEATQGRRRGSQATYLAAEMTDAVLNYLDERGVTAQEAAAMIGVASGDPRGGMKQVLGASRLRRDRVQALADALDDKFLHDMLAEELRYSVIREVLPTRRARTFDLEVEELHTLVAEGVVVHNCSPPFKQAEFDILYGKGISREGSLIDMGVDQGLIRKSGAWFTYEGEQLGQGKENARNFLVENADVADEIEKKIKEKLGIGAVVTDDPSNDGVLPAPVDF

[1] = target: T2, Sentrin-specific protease 6 (Homo sapiens, UniProt Q9GZR1);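 further: Luminescence-based dose-response confirmatory assay of SENP6 inhibition, following up an ultra-high-throughput screen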
T2 sequence (Q9GZR1 whole entry): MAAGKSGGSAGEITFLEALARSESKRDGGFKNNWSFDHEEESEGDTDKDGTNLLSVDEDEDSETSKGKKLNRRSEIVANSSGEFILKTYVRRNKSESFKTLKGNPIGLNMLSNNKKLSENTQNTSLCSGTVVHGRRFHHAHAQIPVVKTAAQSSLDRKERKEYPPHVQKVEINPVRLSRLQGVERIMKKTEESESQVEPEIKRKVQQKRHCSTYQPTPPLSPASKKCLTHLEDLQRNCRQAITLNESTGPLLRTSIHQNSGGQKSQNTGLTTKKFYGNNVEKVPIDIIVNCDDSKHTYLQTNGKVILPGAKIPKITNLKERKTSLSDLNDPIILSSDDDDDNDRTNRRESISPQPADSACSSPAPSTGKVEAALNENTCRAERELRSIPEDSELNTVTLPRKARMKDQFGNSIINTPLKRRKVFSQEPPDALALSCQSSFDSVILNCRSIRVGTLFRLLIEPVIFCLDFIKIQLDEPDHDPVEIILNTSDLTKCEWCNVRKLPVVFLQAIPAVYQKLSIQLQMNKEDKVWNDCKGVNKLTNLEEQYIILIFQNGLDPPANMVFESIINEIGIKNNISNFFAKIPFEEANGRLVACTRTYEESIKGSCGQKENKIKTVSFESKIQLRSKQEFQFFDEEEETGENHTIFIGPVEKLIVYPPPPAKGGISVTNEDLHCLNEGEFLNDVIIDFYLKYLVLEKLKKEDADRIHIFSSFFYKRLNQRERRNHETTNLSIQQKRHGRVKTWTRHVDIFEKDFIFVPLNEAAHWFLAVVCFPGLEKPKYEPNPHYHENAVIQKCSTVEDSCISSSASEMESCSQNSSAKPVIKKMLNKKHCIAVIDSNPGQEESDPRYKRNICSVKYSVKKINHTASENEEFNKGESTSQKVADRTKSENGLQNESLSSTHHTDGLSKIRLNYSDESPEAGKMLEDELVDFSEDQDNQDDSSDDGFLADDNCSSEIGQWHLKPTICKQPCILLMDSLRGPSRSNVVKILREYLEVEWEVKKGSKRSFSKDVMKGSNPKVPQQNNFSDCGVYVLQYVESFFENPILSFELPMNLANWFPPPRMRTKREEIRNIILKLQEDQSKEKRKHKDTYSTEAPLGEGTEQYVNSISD

[2] = target: T3, Sentrin-specific protease 8 (Homo sapiens, UniProt Q96LD8);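 further: luminescence read-out of SENP8 inhibition, dose-response confirmation following an ultra-high-throughput screen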
T3 sequence (Q96LD8 whole entry): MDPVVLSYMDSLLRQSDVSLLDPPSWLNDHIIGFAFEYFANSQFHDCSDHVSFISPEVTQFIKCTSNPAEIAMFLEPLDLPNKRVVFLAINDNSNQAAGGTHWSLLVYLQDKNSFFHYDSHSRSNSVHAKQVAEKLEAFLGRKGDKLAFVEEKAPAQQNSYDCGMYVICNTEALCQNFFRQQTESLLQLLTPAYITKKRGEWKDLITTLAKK

For `Cn1nc(-c2ccc(Cl)cc2)nc2c(=O)n(C)c(=O)nc1-2`, the EC50 (Protein RecA) was 0.0305 µM (active).

In the case of `SC1=Nc2ccccc2C1`, the EC50 (Protein RecA) is reported as 1.66 µM (active).

`NS(=O)(=O)c1ccc(NC(=O)COC(=O)c2ccc([N+](=O)[O-])s2)cc1` was tested, and the IC50 [1] was 4.59 µM (active) and the IC50 [2] was 4.33 µM (active).

For `CCCCNc1cc(NC(C)=O)cc2cc(OC)c(OC)cc12`, the IC50 [1] was 6.78 µM (active) and the IC50 [2] was 18.3 µM (active).
